Molecules are shown by their SMILES. Like-named read-outs stand apart in the source and are kept apart here.

Usually half-life stands for how long it takes for the measured level to halve.

For series [1] the following is noted: cited from earlier work.
The conditions of series [2]: patients with normal renal function; cited from earlier work.
The conditions of series [3]: cited from earlier work. This is another data set of the same source.
The conditions of series [4]: ESRD patient, cited from earlier work.

`O=S([O-])([O-])=S.[Ca+2]` [Calcium thiosulfate]: the “water solubility relative to calcium phosphate” value in series [1] is given as “many folds more water soluble than calcium phosphate”.

As for `O=S([O-])([O-])=S.[Na+].[Na+]` [sodium thiosulfate], under “hemodialysis dialysate”, the “solubility in the dialysis solution” value is given as “soluble”. For the same compound, where the note is “peritoneal dialysis solutions”, the “solubility in peritoneal dialysis solutions” value was “soluble”. Moreover, the serum half-life in series [2] is 0.25 h. In series [3] (anuric dogs), the elimination route entry is reported as “primarily through the biliary system” and the half-life is 3.98 h. In series [3] (dogs, during renal failure), the metabolic clearance rate result is on record as “decreased drastically” and the volume of distribution entry was “doubled”. Also, in series [3] (normal and anuric mongrel dogs), the distribution result is given as “distributes rapidly throughout the extracellular space”. In addition, in series [3] (normal dogs), the cleared renally is reported as over 98% and the half-life was 0.78 h. Moreover, the “serum sodium thiosulfate concentration” value in series [4] (15 min after infusion) is 110 µg/mL. Besides, the “serum sodium thiosulfate concentration” value in series [4] (after a 4-h hemodialysis session) was 0 µg/mL. Further, in series [4] (before hemodialysis (52 h after administration)), the “serum sodium thiosulfate concentration” value was 1.2 µg/mL. The calculated half life in series [4] was 7.97 h. In series [1], the solubility in water result is reported as “soluble in water”.

(Values after US20090304600A1 (priority 2008, published 2009).)
